Results on eleven compounds are retold here after US9302999B2, “Substituted triazoles as herbicides” (E. I. DU PONT DE NEMOURS AND COMPANY, priority 2012, dated 2016).

Format in all cases: in vivo
The subject of assay [1] is barnyardgrass (Echinochloa crus-galli). The assay can be described thus: Test C flooded paddy test: barnyardgrass. As to conditions: Echinochloa crus-galli, scale 0 to 100 (0 no effect, 100 complete control), read-out: Plant response rating, Barnyardgrass; for pest or weed control at 125 g/ha: 125 g ai/ha; for pest or weed control at 250 g/ha: 250 g ai/ha; for pest or weed control at 62 g/ha: 62 g ai/ha. The procedure, abridged: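 Plants at 2-leaf stage in pots flooded 3 cm above soil; compounds applied directly into the paddy water, depth maintained. Visual rating against controls after 13–15 days in greenhouse, scale 0 (no effect) to 100 (complete control).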

Assay [2] concerns field bindweed (Convolvulus arvensis). As to the kind of experiment: Test F pre-/postemergence: field bindweed. An excerpt:
Seeds of plant species selected from corn (Zea mays), soybean (Glycine max), velvetleaf (Abutilon theophrasti), lambsquarters (Chenopodium album), poinsettia, wild (wild poinsettia, Euphorbia heterophylla), pigweed, palmer (palmer pigweed, Amaranthus palmeri), waterhemp (common waterhemp, Amaranthus rudis), surinam grass (Brachiaria decumbens), crabgrass, Brazil (Brazilian crabgrass, Digitaria horizontalis), panicum, fall (fall panicum Panicum dichotomiflorum), crabgrass, large (large crabgrass, Digitaria sanguinalis), foxtail, giant (giant foxtail, Setaria faberii), foxtail, green (green foxtail Setaria viridis), goosegrass (Eleusine indica), ragweed (common ragweed, Ambrosia elatior), barnyardgrass (Echinochloa crus-galli), sandbur (southern sandbur, Cenchrus echinatus), arrowleaf sida (Sida rhombifolia), ryegrass, Italian (Italian ryegrass, Lolium multiflorum), dayflower, VA (Virginia (VA) dayflower, Commelina virginica), field bindweed (Convolvulus arvensis), cocklebur (common cocklebur, Xanthium strumarium), morningglory (Ipomoea coccinea), nightshade (eastern black nightshade, Solanum ptycanthum), kochia (Kochia scoparia), nutsedge, yellow (yellow nutsedge, Cyperus esculentus), johnsongrass (Sorghum halepense), smartweed (ladysthumb smartweed, Polygonum persicaria), and beggarticks (hairy beggarticks, Bidens pilosa), were planted into a silt loam soil and treated preemergence with test chemicals formulated in a non-phytotoxic solvent mixture which included a surfactant. At the same time, plants selected from these crop and weed species and also pigweed (Amaranthus retroflexus), waterhemp_RES1 (ALS/Triazine resistant common waterhemp, Amaranthus rudis) and waterhemp_RES2 (ALS/HPPD resistant common waterhemp, Amaranthus rudis) were planted in pots containing a planting medium comprising spaghnum peat moss, vermiculite, wetting agent and starter nutrients treated with postemergence applications of some of the test chemicals formulated in the same manner. Plants ranged in height from 2 to 18 cm for postemergence treatments (1- to 4-leaf stage).
Treated plants and controls were maintained in a greenhouse for 14 to 21 days, after which time all species were compared to controls and visually evaluated. Plant response ratings, summarized in Table E, are based on a scale of 0 to 100 where 0 is no effect and 100 is complete control. A dash (-) response means no test result.

The test system of assay [3] is chickweed (common chickweed, Stellaria media). As to the kind of experiment: Test D pre-/postemergence: chickweed. An excerpt: (§1) Seeds of plant species selected from bluegrass (annual bluegrass, Poa annua), blackgrass (Alopecurus myosuroides), canarygrass (Phalaris minor), chickweed (common chickweed, Stellaria media), galium (catchweed bedstraw, Galium aparine), bromegrass, downy (downy bromegrass, Bromus tectorum), field poppy (Papaver rhoeas), field violet (Viola arvensis), foxtail, green (green foxtail, Setaria viridis), deadnettle (henbit deadnettle, Lamium amplexicaule), ryegrass, Italian (Italian ryegrass, Lolium multiflorum), kochia (Kochia scoparia), lambsquarters (Chenopodium album), oilseed rape (Brassica napus), pigweed (Amaranthus retroflexus), Russian thistle (Salsola iberica), chamomile (scentless chamomile, Matricaria inodora), speedwell (bird's-eye speedwell, Veronica persica), barley, spring (spring barley, Hordeum vulgare), wheat, spring (spring wheat, Triticum aestivum), buckwheat, wild (wild buckwheat, Polygonum convolvulus), mustard, wild (wild mustard, Sinapis arvensis), oat, wild (wild oat, Avena fatua), radish, wild (wild radish, Raphanus raphanistrum), windgrass (Apera spica-venti), barley, winter (winter barley, Hordeum vulgare), and wheat, winter (winter wheat, Triticum aestivum) were planted into a silt loam soil and treated preemergence with test chemicals formulated in a non-phytotoxic solvent mixture which included a surfactant. At the same time, these same crop and weed species were planted in pots containing the planting medium comprising spaghnum peat moss, vermiculite, wetting agent and starter nutrients and treated with postemergence applications of the test chemicals formulated in the same manner. Plants ranged in height from 2 to 18 cm (1- to 4-leaf stage).
(§2) Treated plants and controls were maintained in a controlled growth environment for 14 to 21 days after which time all species were compared to controls and visually evaluated. Plant response ratings, summarized in Table D, are based on a scale of 0 to 100 where 0 is no effect and 100 is complete control. A dash (-) response means no test result.

Assay [4] relates to speedwell (bird's-eye speedwell, Veronica persica). As to the kind of experiment: Test D pre-/postemergence: speedwell. As to conditions: Postemergence; for Plant response rating, Speedwell: 16 g ai/ha, scale 0 to 100.
Source text: as §1, §2

Setting [5] is: Flood (flooded paddy test), visual rating after 13 to 15 days.
The mark [6] stands for this setting: Postemergence, 16 g ai/ha, scale 0 to 100.
Where [7] appears, read: Postemergence, 31 g ai/ha, scale 0 to 100.
The mark [8] stands for this setting: Postemergence, 62 g ai/ha, scale 0 to 100.
The mark [9] stands for this setting: Postemergence, 125 g ai/ha, scale 0 to 100.
Setting [10] is: Postemergence, 31 g ai/ha, scale 0 to 100 (0 no effect, 100 complete control).
Where [11] appears, read: Postemergence, 62 g ai/ha, scale 0 to 100 (0 no effect, 100 complete control).
[12] abbreviates: Postemergence, 125 g ai/ha, scale 0 to 100, 0 no effect, 100 complete control.
The mark [13] stands for this setting: Postemergence, 250 g ai/ha, scale 0 to 100 (0 no effect, 100 complete control).
Where [14] appears, read: Preemergence, 31 g ai/ha, scale 0 to 100, 0 no effect, 100 complete control.
Where [15] appears, read: Preemergence, 62 g ai/ha, scale 0 to 100.
Setting [16] is: Preemergence, 125 g ai/ha, scale 0 to 100.
Where [17] appears, read: Preemergence, 250 g ai/ha, scale 0 to 100.
Where [18] appears, read: 31 g ai/ha, scale 0 to 100 (0 no effect, 100 complete control).
Where [19] appears, read: 62 g ai/ha, scale 0 to 100 (0 no effect, 100 complete control).
Where [20] appears, read: 125 g ai/ha, scale 0 to 100, 0 no effect, 100 complete control.
Setting [21] is: 250 g ai/ha, scale 0 to 100 (0 no effect, 100 complete control).
Where [22] appears, read: Preemergence, 16 g ai/ha, scale 0 to 100, 0 no effect, 100 complete control.
The mark [23] stands for this setting: Postemergence, 250 g ai/ha, scale 0 to 100.

SMILES strings stand for the structures. Read-outs that look alike come from different tables or passages of the source.

Take `COCc1nn(-c2ccc(C(F)(F)F)cc2)nc1Oc1cccc(OC(F)(F)F)c1` [Compound 115, 4-(methoxymethyl)-5-[3-(trifluoromethoxy)phenoxy]-2-[4-(trifluoromethyl)phenyl]-2H-1,2,3-triazole]: in assay [1] (setting [5]), the pest or weed control at 125 g/ha amounted to 45% and the pest or weed control at 250 g/ha turned out to be 60%. The pest or weed control at 62 g/ha in assay [1] (Flood) came to 40%.

On to `Cc1nn(-c2ccnc(Cl)c2)nc1Cc1ccnc(C(F)(F)F)c1` [Compound 141], for which the “Plant response rating, Field Bindweed” value in assay [2] (Postemergence, 8 g ai/ha, scale 0 to 100) is on record as 50; in assay [2] (setting [6]) it was 60; in assay [2] (setting [7]), 70; in assay [2] (setting [8]), 80; in assay [2] (setting [9]), 85.

With `COc1nn(-c2ccc(C(F)(F)F)cc2)nc1Cc1ccnc(C(F)(F)F)c1` [Compound 15, 4-[[5-methoxy-2-[4-(trifluoromethyl)phenyl]-2H-1,2,3-triazol-4-yl]methyl]-2-(trifluoromethyl)pyridine], in assay [1] (setting [5]), the pest or weed control at 62 g/ha is 65%. Also, in assay [1] (setting [5]), the pest or weed control at 250 g/ha came out at 75%. For the same compound, the “Plant response rating: Chickweed” value in assay [3] (setting [10]), in assay [3] (setting [11]), in assay [3] (setting [12]) and in assay [3] (setting [13]) was 100 in each case. Besides, the “Plant response rating, Chickweed” value in assay [3] (setting [6]) is recorded as 40; in assay [3] (setting [14]), 100; in assay [3] (setting [15]) it was 100; in assay [3] (setting [16]), 100; in assay [3] (setting [17]), 100. Besides, the “Plant response rating: Speedwell” value in assay [4] (setting [18]), in assay [4] (setting [19]), in assay [4] (setting [20]) and in assay [4] (setting [21]) was 100 each time. Further, the “Plant response rating, Speedwell” value in assay [4] was found to be 100.

As for `COc1nn(-c2ccc(C(F)(F)F)cc2)nc1Cc1ccnc(C(F)F)c1` [Compound 138], the “Plant response rating: Chickweed” value in assay [3] (setting [10]) amounted to 60; in assay [3] (setting [11]), 85; in assay [3] (setting [12]) it was 95; in assay [3] (setting [13]), 100. In addition, the “Plant response rating, Chickweed” value in assay [3] (setting [6]) came out at 60. Moreover, the “Plant response rating: Speedwell” value in assay [4] (setting [18]) is on record as 80; in assay [4] (setting [19]), 90; in assay [4] (setting [20]) it was 98; in assay [4] (setting [21]) it was 100. In assay [4], the “Plant response rating, Speedwell” value was 80.

Turning to `COc1nn(-c2cccc(F)c2)nc1Cc1ccnc(C(F)(F)F)c1` [Compound 139], the “Plant response rating, Field Bindweed” value in assay [2] (setting [22]) is given as 0; in assay [2] (setting [14]), 0; in assay [2] (setting [15]), 0; in assay [2] (setting [16]) it was 0; in assay [2] (setting [17]), 20.

In the case of `CCc1nn(-c2ccc(C(F)(F)F)cc2)nc1Oc1ccnc(C(F)(F)F)c1` [Compound 169], the “Plant response rating, Field Bindweed” value in assay [2] (setting [23]) was determined as 55; in assay [2] (setting [6]), 20; in assay [2] (setting [7]), 20; in assay [2] (setting [8]), 30; in assay [2] (setting [9]) it was 35; in assay [2] (setting [22]), 0. Further, the figures for the “Plant response rating, Field Bindweed” value in assay [2] (setting [14]), in assay [2] (setting [16]) and in assay [2] (setting [17]) were 0, 20 and 80, respectively.

With `Cc1nn(-c2ccc(F)cc2F)nc1Oc1ccnc(C(F)(F)F)c1` [Compound 146], the “Plant response rating, Field Bindweed” value in assay [2] (setting [22]) came to 0; in assay [2] (setting [14]), 0; in assay [2] (setting [15]) it was 0; in assay [2] (setting [16]), 0; in assay [2] (setting [17]), 25.

Take `Cc1nn(-c2ccc(C(F)(F)F)cc2)nc1Oc1csc(C(F)(F)F)c1` [Compound 1, 4-methyl-2-[4-(trifluoromethyl)phenyl]-5-[[5-(trifluoromethyl)-3-thienyl]oxy]-2H-1,2,3-triazole]: in assay [1] (setting [5]), the pest or weed control at 62 g/ha worked out at 0% and the pest or weed control at 250 g/ha is 0%.

In the case of `CCCc1nn(-c2ccc(F)c(F)c2)nc1Oc1ccnc(C(F)(F)F)c1` [Compound 172], the “Plant response rating, Field Bindweed” value in assay [2] (setting [23]) amounted to 60; in assay [2] (setting [7]) it was 25; in assay [2] (setting [9]), 60; in assay [2] (setting [14]) it was 5; in assay [2] (setting [16]) it was 95; in assay [2] (setting [17]) it was 95.

`CCc1nn(-c2ccc(F)c(F)c2)nc1Oc1ccnc(C(F)(F)F)c1` [Compound 171]: the “Plant response rating, Field Bindweed” value in assay [2] (setting [22]) is recorded as 0; in assay [2] (setting [14]), 0; in assay [2] (setting [15]), 0; in assay [2] (setting [16]) it was 5; in assay [2] (setting [17]), 5.

In the case of `FCc1nn(-c2ccc(C(F)(F)F)cc2)nc1Oc1cccc(OC(F)(F)F)c1` [Compound 116, 4-(fluoromethyl)-5-[3-(trifluoromethoxy)phenoxy]-2-[4-(trifluoromethyl)phenyl]-2H-1,2,3-triazole], in assay [1] (setting [5]), the pest or weed control at 125 g/ha turned out to be 40% and the pest or weed control at 250 g/ha stood at 60%. In assay [1] (Flood), the pest or weed control at 62 g/ha is 35%.
